Measurements as given in ChEMBL document CHEMBL1201862, “PubChem BioAssay data set” (2004).
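Step 1: Grow cells in 96-well plates. Step 2: Expose to compound for 48 hours at 5 concentrations. Step 3: Interpolate endpoints linearly; if unreached, use highest concentration. Here, GI50 denotes the concentration required for 50% inhibition of growth.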 Calls of active or inactive are those of the source. Cut-off read from the data, not from the text of the source: active = GI50 up to about 1.1 µM and inactive = higher.

Experiments:
Experiment in all cases: DTP human tumour cell line panel, 48 h
[1] = system: DLD-1
[2] = system: HOP-18
[3] = system: LXFL 529
[4] = system: RXF 631
[5] = system: SNB-78
[6] = system: XF498
[7] = system: DMS-273
[8] = system: DMS-114

Measured: GI50

COCCOCOC(C)(C)[C@H](CCO)O[Si](c1ccccc1)(c1ccccc1)C(C)(C)C
inactive: [1] 9.64 µM | [2] 17.5 µM | [3] 9.95 µM | [4] 5.85 µM | [5] 16.3 µM | [6] 3.18 µM

Nc1nc(Cl)cc(NCCCCCCNc2cc(Cl)nc(N)n2)n1
inactive: [1] > 100 µM | [7] > 100 µM | [2] > 100 µM | [3] 32.7 µM | [4] > 100 µM | [6] 30.6 µM

COc1ccccc1/C=C1\CCC(CCN2CCOCC2)C1=O (stereo unspecified)
inactive: [1] > 100 µM | [8] 42 µM | [7] > 100 µM | [2] > 100 µM | [3] > 100 µM | [4] 92.7 µM | [5] > 100 µM | [6] > 100 µM

CCCNCCCC(NC(C)=O)C(=O)NCc1ccccc1 (stereo unspecified)
inactive: [1] > 100 µM | [8] > 100 µM | [7] > 100 µM | [3] > 100 µM | [4] > 100 µM | [5] > 100 µM | [6] > 100 µM

CCOP(=O)(OCC)OC1C=CC2CCC1C2 (stereo unspecified)
inactive: [1] > 100 µM | [8] 87.9 µM | [7] 18.6 µM | [2] > 100 µM | [3] > 100 µM | [4] > 100 µM | [5] > 100 µM | [6] > 100 µM

NC(=O)N/N=C1/CCCC/C1=C\c1ccccc1
inactive: [1] > 100 µM | [8] > 100 µM | [7] > 100 µM | [2] > 100 µM | [3] > 100 µM | [4] > 100 µM | [5] > 100 µM

Cc1cc2c(c3c1c1ccccc1n3C)C(=O)c1ccccc1C2=O
inactive: [1] > 100 µM | [8] > 100 µM | [7] > 100 µM | [3] > 100 µM | [4] > 100 µM | [5] > 100 µM | [6] 60.1 µM

Cc1ccccc1CN1CC=c2ccccc2=N1
inactive: [1] > 100 µM | [8] > 100 µM | [7] > 100 µM | [2] > 100 µM | [4] > 100 µM | [5] > 100 µM | [6] 68.1 µM

COC(=O)C(CCC1(C)OCCO1)C(C)=O (stereo unspecified)
inactive: [1] > 100 µM | [8] > 100 µM | [7] > 100 µM | [2] > 100 µM | [3] > 100 µM | [4] > 100 µM | [5] > 100 µM | [6] > 100 µM

CCCCCCCCCCCCCS(=O)(=O)O
inactive: [1] > 100 µM | [8] > 100 µM | [2] 3.08 µM | [3] > 100 µM | [4] > 100 µM | [5] > 100 µM | [6] > 100 µM
